Results published in patent US12139520B2 (priority 2020, dated 2024).
Numbered stars: 1 amine (or outer) side, 2 acyl side, 3 side chain; on linkers, the order of the positions; unused ones are H or OH. Bridge positions count the residues as written; N and C are the ends. Square brackets hold non-standard residues; d marks the D form. Peptide text beside a SMILES is read from it. * marks the point of attachment. C20 diacid = O=C(O)CCCCCCCCCCCCCCCCCCC(=O)*; γGlu = O=C(O)[C@H](CCC(=O)[*:2])N[*:1]; Hyp = O=C(O)[C@@H]1C[C@@H](O)CN1; Aib = CC(C)(N)C(=O)O

Columns and labels:
hAMY3 receptor = target: T1, hAMY3 receptor (Homo sapiens, UniProt O60896+P30988); test: cAMP assay for in vitro receptor activation, hAMY3-R; type: cell-based; conditions: cAMP assay, hAMY3 receptor; read-out: hAMY3R EC50
T1 sequence (P30988 25-474): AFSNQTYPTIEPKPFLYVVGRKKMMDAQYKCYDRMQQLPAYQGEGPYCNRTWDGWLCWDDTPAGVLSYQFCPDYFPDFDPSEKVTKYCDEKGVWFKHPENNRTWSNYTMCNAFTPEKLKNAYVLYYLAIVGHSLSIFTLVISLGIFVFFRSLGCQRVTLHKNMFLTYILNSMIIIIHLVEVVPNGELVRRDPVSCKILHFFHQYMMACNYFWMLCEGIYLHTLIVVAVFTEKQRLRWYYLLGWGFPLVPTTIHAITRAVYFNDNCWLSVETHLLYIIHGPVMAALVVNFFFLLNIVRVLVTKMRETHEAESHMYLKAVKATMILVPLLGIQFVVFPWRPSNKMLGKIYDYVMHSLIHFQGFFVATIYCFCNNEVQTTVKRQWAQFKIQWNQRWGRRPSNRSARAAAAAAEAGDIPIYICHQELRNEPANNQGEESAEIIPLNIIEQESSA
T1 sequence (O60896 24-148 partner): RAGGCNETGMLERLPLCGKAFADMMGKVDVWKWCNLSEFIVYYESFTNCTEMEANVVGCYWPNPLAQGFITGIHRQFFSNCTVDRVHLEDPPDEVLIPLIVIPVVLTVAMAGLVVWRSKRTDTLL
How it was run: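 Thawed cells from a sub-cloned monoclonal hAMY3-overexpressing line are plated in DPBS containing 0.05% casein and 0.5 mM IBMX. Test compounds are added immediately at graded doses for 30 min at room temperature. Reagents for cAMP detection are then added, and TR-FRET is recorded after one hour.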

hAM1 receptor = hAM1 receptor (Homo sapiens, UniProt O60895+Q16602); test: cAMP assay for in vitro receptor activation, hAM1-R; type: cell-based; conditions: cAMP assay, hAM1 receptor; read-out: hAM1R EC50
How it was run: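 Receptor activation, read as cAMP, was assessed in thawed cells of a monoclonal hAM1-overexpressing stable line, plated at 8000 cells/well in DPBS supplemented with 0.05% casein and 0.5 mM IBMX.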

hAM1 receptor, sequence (Q16602 23-461): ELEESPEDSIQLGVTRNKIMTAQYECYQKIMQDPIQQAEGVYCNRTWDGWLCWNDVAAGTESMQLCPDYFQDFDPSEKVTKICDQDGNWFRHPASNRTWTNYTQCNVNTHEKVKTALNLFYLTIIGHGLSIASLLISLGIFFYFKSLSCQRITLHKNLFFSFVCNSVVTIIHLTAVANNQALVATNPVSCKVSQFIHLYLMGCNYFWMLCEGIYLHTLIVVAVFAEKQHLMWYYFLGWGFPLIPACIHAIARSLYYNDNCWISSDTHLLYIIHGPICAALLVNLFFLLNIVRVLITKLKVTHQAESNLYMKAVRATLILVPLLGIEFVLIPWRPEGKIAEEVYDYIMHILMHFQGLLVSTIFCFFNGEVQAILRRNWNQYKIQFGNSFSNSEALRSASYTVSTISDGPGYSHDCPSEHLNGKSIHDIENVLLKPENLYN
hAM1 receptor, sequence (O60895 43-175 partner): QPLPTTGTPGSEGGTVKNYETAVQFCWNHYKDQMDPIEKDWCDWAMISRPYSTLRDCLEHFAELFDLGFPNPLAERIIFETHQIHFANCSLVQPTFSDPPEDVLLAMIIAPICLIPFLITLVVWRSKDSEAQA

| Compound | EC50 (hAMY3 receptor) [nM] | EC50 (hAM1 receptor) [µM] |
| --- | --- | --- |
| CC[C@H](C)[C@H](NC(=O)[C@H](CCC(N)=O)NC(=O)[C@H](Cc1c[nH]cn1)NC(=O)[C@H](C)NC(=O)[C@H](CC(C)C)NC(=O)[C@H](CCCNC(=N)N)NC(=O)[C@H](CCC(N)=O)NC(=O)[C@@H](NC(=O)[C@@H](NC(=O)[C@@H]1CSSC[C@H](NC(=O)[C@H](CCCCN)NC(=O)CC[C@H](NC(=O)CCCCCCCCCCCCCCCCCCC(=O)O)C(=O)O)C(=O)N[C@@H](CC(N)=O)C(=O)N[C@@H]([C@@H](C)O)C(=O)N[C@@H](C)C(=O)N[C@@H]([C@@H](C)O)C(=O)N1)[C@@H](C)O)C(C)C)C(=O)N[C@@H](C)C(=O)N[C@@H](CCC(N)=O)C(=O)N[C@@H](Cc1ccccc1)C(=O)N[C@@H](C)C(=O)N[C@@H](CC(=O)O)C(=O)N[C@@H](CCCCN)C(=O)N[C@@H](CC(=O)O)C(=O)N[C@@H](CCCCN)C(=O)N[C@@H](CC(=O)O)C(=O)N[C@@H](CC(N)=O)C(=O)N[C@H](C(=O)N[C@@H](C)C(=O)N1CCC[C@H]1C(=O)N1CCC[C@H]1C(=O)N[C@H](C(=O)N[C@@H](CC(N)=O)C(=O)N[C@H](C(=O)NCC(=O)N[C@@H](CO)C(=O)N[C@@H](CC(N)=O)C(=O)NCC(=O)N1C[C@H](O)C[C@H]1C(N)=O)C(C)C)[C@@H](C)O)C(C)C [compound 105] ({C20 diacid-γGlu}-KCNTATCTVQRLAHQIAQFADKDKDNVAPPTNVGSNG[Hyp]-NH2; disulfide 2-7) | 0.018 | > 5 |
| CC[C@H](C)[C@H](NC(=O)[C@H](CCC(N)=O)NC(=O)[C@H](CCC(=O)O)NC(=O)[C@H](C)NC(=O)[C@H](CC(C)C)NC(=O)[C@H](CCCNC(=N)N)NC(=O)[C@H](CCC(N)=O)NC(=O)[C@@H](NC(=O)[C@@H](NC(=O)[C@@H]1CSSC[C@H](NC(=O)[C@H](CCCCN)NC(=O)CC[C@H](NC(=O)CCCCCCCCCCCCCCCCCCC(=O)O)C(=O)O)C(=O)N[C@@H](CC(N)=O)C(=O)N[C@@H]([C@@H](C)O)C(=O)N[C@@H](C)C(=O)N[C@@H]([C@@H](C)O)C(=O)N1)[C@@H](C)O)C(C)C)C(=O)N[C@@H](Cc1ccc(O)cc1)C(=O)N[C@@H](CCC(N)=O)C(=O)N[C@@H](Cc1ccccc1)C(=O)N[C@H](C(=O)N[C@@H](C)C(=O)N[C@@H](CCCCN)C(=O)N[C@@H](CC(=O)O)C(=O)N[C@@H](CCCCN)C(=O)N[C@@H](CC(=O)O)C(=O)N[C@@H](CC(N)=O)C(=O)N[C@H](C(=O)N[C@@H](C)C(=O)N1CCC[C@H]1C(=O)N1CCC[C@H]1C(=O)N[C@H](C(=O)N[C@@H](CC(N)=O)C(=O)N[C@H](C(=O)NCC(=O)N[C@@H](CO)C(=O)N[C@@H](CC(N)=O)C(=O)NCC(=O)N1C[C@H](O)C[C@H]1C(N)=O)C(C)C)[C@@H](C)O)C(C)C)[C@@H](C)O [compound 106] ({C20 diacid-γGlu}-KCNTATCTVQRLAEQIYQFTAKDKDNVAPPTNVGSNG[Hyp]-NH2; disulfide 2-7) | 0.018 | > 5 |
| CC[C@H](C)[C@H](NC(=O)[C@H](CCC(N)=O)NC(=O)[C@H](CCC(=O)O)NC(=O)[C@H](C)NC(=O)[C@H](CC(C)C)NC(=O)[C@H](CCCNC(=N)N)NC(=O)[C@H](CCC(N)=O)NC(=O)[C@@H](NC(=O)[C@@H](NC(=O)[C@@H]1CSSC[C@H](NC(=O)[C@H](CCCCN)NC(=O)CC[C@H](NC(=O)CCCCCCCCCCCCCCCCCCC(=O)O)C(=O)O)C(=O)N[C@@H](CC(N)=O)C(=O)N[C@@H]([C@@H](C)O)C(=O)N[C@@H](C)C(=O)N[C@@H]([C@@H](C)O)C(=O)N1)[C@@H](C)O)C(C)C)C(=O)N[C@@H](Cc1ccc(O)cc1)C(=O)N[C@@H](CCC(N)=O)C(=O)N[C@@H](Cc1ccccc1)C(=O)N[C@H](C(=O)N[C@@H](CC(=O)O)C(=O)N[C@@H](CCCCN)C(=O)N[C@@H](CC(=O)O)C(=O)N[C@@H](CCCCN)C(=O)N[C@@H](C)C(=O)N[C@@H](CC(N)=O)C(=O)N[C@H](C(=O)N[C@@H](C)C(=O)N1CCC[C@H]1C(=O)N1CCC[C@H]1C(=O)N[C@H](C(=O)N[C@@H](CC(N)=O)C(=O)N[C@H](C(=O)NCC(=O)N[C@@H](CO)C(=O)N[C@@H](CC(N)=O)C(=O)NCC(=O)N1C[C@H](O)C[C@H]1C(N)=O)C(C)C)[C@@H](C)O)C(C)C)[C@@H](C)O [compound 108] ({C20 diacid-γGlu}-KCNTATCTVQRLAEQIYQFTDKDKANVAPPTNVGSNG[Hyp]-NH2; disulfide 2-7) | 0.019 | > 5 |
| CC[C@H](C)[C@H](NC(=O)[C@H](CCC(N)=O)NC(=O)[C@H](Cc1c[nH]cn1)NC(=O)[C@H](C)NC(=O)[C@H](CC(C)C)NC(=O)[C@H](CCCNC(=N)N)NC(=O)[C@H](CCC(N)=O)NC(=O)[C@@H](NC(=O)[C@@H](NC(=O)[C@@H]1CSSC[C@H](NC(=O)[C@H](CCCCN)NC(=O)CC[C@H](NC(=O)CCCCCCCCCCCCCCCCCCC(=O)O)C(=O)O)C(=O)N[C@@H](CC(N)=O)C(=O)N[C@@H]([C@@H](C)O)C(=O)N[C@@H](C)C(=O)N[C@@H]([C@@H](C)O)C(=O)N1)[C@@H](C)O)C(C)C)C(=O)N[C@@H](CCC(=O)O)C(=O)N[C@@H](CCC(N)=O)C(=O)N[C@@H](Cc1ccccc1)C(=O)N[C@H](C(=O)N[C@@H](CC(=O)O)C(=O)N[C@@H](CCCCN)C(=O)N[C@@H](CC(=O)O)C(=O)N[C@@H](CCCCN)C(=O)N[C@@H](CC(=O)O)C(=O)N[C@@H](CC(N)=O)C(=O)N[C@H](C(=O)N[C@@H](C)C(=O)N1CCC[C@H]1C(=O)N1CCC[C@H]1C(=O)N[C@H](C(=O)N[C@@H](CC(N)=O)C(=O)N[C@H](C(=O)NCC(=O)N[C@@H](CO)C(=O)N[C@@H](CC(N)=O)C(=O)NCC(=O)N1C[C@H](O)C[C@H]1C(N)=O)C(C)C)[C@@H](C)O)C(C)C)[C@@H](C)O [compound 110] ({C20 diacid-γGlu}-KCNTATCTVQRLAHQIEQFTDKDKDNVAPPTNVGSNG[Hyp]-NH2; disulfide 2-7) | 0.02 | > 5 |
| CC[C@H](C)[C@H](NC(=O)[C@H](CCC(N)=O)NC(=O)[C@H](Cc1c[nH]cn1)NC(=O)[C@H](C)NC(=O)[C@H](CC(C)C)NC(=O)[C@H](CCCNC(=N)N)NC(=O)[C@H](CC(=O)O)NC(=O)[C@@H](NC(=O)[C@@H](NC(=O)[C@@H]1CSSC[C@H](NC(=O)[C@H](CCCCN)NC(=O)CC[C@H](NC(=O)CCCCCCCCCCCCCCCCCCC(=O)O)C(=O)O)C(=O)N[C@@H](CC(N)=O)C(=O)N[C@@H]([C@@H](C)O)C(=O)N[C@@H](C)C(=O)N[C@@H]([C@@H](C)O)C(=O)N1)[C@@H](C)O)C(C)C)C(=O)N[C@@H](C)C(=O)N[C@@H](CCC(N)=O)C(=O)N[C@@H](Cc1ccccc1)C(=O)N[C@H](C(=O)N[C@@H](CC(=O)O)C(=O)N[C@@H](CCCCN)C(=O)N[C@@H](CC(=O)O)C(=O)N[C@@H](CCCCN)C(=O)N[C@@H](CC(=O)O)C(=O)N[C@@H](CC(N)=O)C(=O)N[C@H](C(=O)N[C@@H](C)C(=O)N1CCC[C@H]1C(=O)N1CCC[C@H]1C(=O)N[C@H](C(=O)N[C@@H](CC(N)=O)C(=O)N[C@H](C(=O)NCC(=O)N[C@@H](CO)C(=O)N[C@@H](CC(N)=O)C(=O)NCC(=O)N1C[C@H](O)C[C@H]1C(N)=O)C(C)C)[C@@H](C)O)C(C)C)[C@@H](C)O [compound 112] ({C20 diacid-γGlu}-KCNTATCTVDRLAHQIAQFTDKDKDNVAPPTNVGSNG[Hyp]-NH2; disulfide 2-7) | 0.021 | > 5 |
| CC[C@H](C)[C@H](NC(=O)[C@H](CCC(N)=O)NC(=O)[C@H](Cc1c[nH]cn1)NC(=O)[C@H](C)NC(=O)[C@H](CC(C)C)NC(=O)[C@H](CCCNC(=N)N)NC(=O)[C@H](CCC(N)=O)NC(=O)[C@@H](NC(=O)[C@@H](NC(=O)[C@@H]1CSSC[C@H](NC(=O)[C@H](CCCCN)NC(=O)CC[C@H](NC(=O)CCCCCCCCCCCCCCCCCCC(=O)O)C(=O)O)C(=O)N[C@@H](CC(N)=O)C(=O)N[C@@H]([C@@H](C)O)C(=O)NC(C)(C)C(=O)N[C@@H]([C@@H](C)O)C(=O)N1)[C@@H](C)O)C(C)C)C(=O)N[C@@H](Cc1ccc(O)cc1)C(=O)N[C@@H](CCC(N)=O)C(=O)N[C@@H](Cc1ccccc1)C(=O)N[C@H](C(=O)N[C@@H](CC(=O)O)C(=O)N[C@@H](CCCCN)C(=O)N[C@@H](CC(=O)O)C(=O)N[C@@H](CCCCN)C(=O)N[C@@H](CC(=O)O)C(=O)N[C@@H](CC(N)=O)C(=O)N[C@H](C(=O)N[C@@H](C)C(=O)N1CCC[C@H]1C(=O)N1CCC[C@H]1C(=O)N[C@H](C(=O)N[C@@H](CC(N)=O)C(=O)N[C@H](C(=O)NCC(=O)N[C@@H](CO)C(=O)N[C@@H](CC(N)=O)C(=O)NCC(=O)N1C[C@H](O)C[C@H]1C(N)=O)C(C)C)[C@@H](C)O)C(C)C)[C@@H](C)O [compound 119] ({C20 diacid-γGlu}-KCNT[Aib]TCTVQRLAHQIYQFTDKDKDNVAPPTNVGSNG[Hyp]-NH2; disulfide 2-7) | 0.024 | > 5 |
